In US20190350940A1, “PLATINUM COMPOUNDS, COMPOSITIONS, AND USES THEREOF” (priority 2015, published 2019):
Where two headings read alike, the source gives them in different places.

Legend:
[1] = tested on: MIA Paca-2 human pancreatic adenocarcinoma; test: MIA Paca-2 pancreatic xenograft model; format: in vivo, mouse
[2] = tested on: A2780 human ovarian cancer; test: A2780 ovarian xenograft model; format: in vivo, mouse
Method: The effect of Compound 8 on tumor growth inhibition (TGI) was evaluated in the A2780 human ovarian cancer nude mouse (female Crl:NU(NCr)-Foxn1^nu) xenograft model.

NCI-H520 human NSCLC = test: NCI-H520 lung xenograft model; format: in vivo, mouse
Method: The effect of Compound 8 also was evaluated in the NCI-H520 human NSCLC nude mouse (female CrTac:NCr-Foxn1^nu) xenograft model. […] All treatments were statistically significant compared to vehicle (p<0.0001).

rat = test: Single IV administration in the rat, kidney findings; format: in vivo; settings: single dose of cisplatin 7 mg/kg
Calu-6 human NSCLC = test: Calu-6 lung xenograft model; format: in vivo, mouse
Method: The effect of Compound 8 was evaluated in the Calu-6 human NSCLC nude mouse (female Crl:NU(NCr)-Foxn1^nu) xenograft model.

rats = settings: 50 rats treated for 3 weeks, 3×1 mg/kg body weight/week; cited from earlier work
patients = settings: cited from earlier work
[3] = tested on: BxPC-3 human pancreatic adenocarcinoma; test: BxPC-3 pancreatic xenograft model; format: in vivo, mouse; settings: cisplatin 4 mg/kg
Method: The effect of Compound 8 on TGI was evaluated in the BxPC-3 human pancreatic adenocarcinoma nude mouse (female Crl:NU(NCr)-Foxn1^nu) xenograft model.

## O=C1[O][Pt]2([NH][C@@H]3CCCC[C@H]3[NH]2)[O]C1=O [Oxaliplatin]
[1]; Oxaliplatin 7 mg/kg (17.9 uM/kg) IV q3, 7 doses, Day 18
  MTV (mean tumor volume): 1251 mm^3
[1]; Oxaliplatin 7 mg/kg IV q3, 7 doses, Day 18
  TGI (tumor growth inhibition) versus vehicle: 61%
[1]; oxaliplatin 7 mg/kg, all animals, Day 18
  Treatment-related effects: pale and dehydrated and having petechiae
[1]; oxaliplatin 7 mg/kg, printed 'Day 5.3'
  Mean maximal BW loss: 8.1%

## N.N.[Cl][Pt][Cl] [Cisplatin]
[2]; Cisplatin 4 mg/kg (13.3 uM/kg) IV every 3 days, 6 doses
  MTV (mean tumor volume): 1052 mm^3
[2]; Cisplatin 4 mg/kg IV every 3 days, 6 doses
  TGI (tumor growth inhibition) versus vehicle: 55%
[2]; cisplatin 4 mg/kg, Day 5
  Mean maximal BW loss: 2.3%
NCI-H520 human NSCLC; Cisplatin 3 mg/kg (10 uM/kg) IV twice weekly, 5 doses, Day 31
  MTV (mean tumor volume): 823 mm^3
NCI-H520 human NSCLC; cisplatin 3 mg/kg, on Day 4
  Mean maximal BW loss: 0.43%
rat
  Kidney findings: high incidence of moderate acute tubular necrosis of the kidney
Calu-6 human NSCLC; Cisplatin 3 mg/kg (10 uM/kg) IV twice weekly for 2 weeks, Day 33
  MTV (mean tumor volume): 462 mm^3
Calu-6 human NSCLC; Cisplatin 3 mg/kg IV twice weekly for 2 weeks, Day 33
  TGI (tumor growth inhibition) versus vehicle: 74%
Calu-6 human NSCLC; Cisplatin 3 mg/kg IV twice weekly for 2 weeks, Day 54
  Median TTE (time to endpoint): 52.5 days
Calu-6 human NSCLC; cisplatin 3 mg/kg
  BW loss: no BW loss
  T-C: 16.7 days
Calu-6 human NSCLC; cisplatin 3 mg/kg, one animal
  Treatment-related side effects: severe petechiae on Day 4
rats
  Deaths secondary to malignancy: 13
patients; first-line setting
  Response rate in most advanced cancers: ~50%
patients; human, in vivo
  Hypersensitivity reactions, patients treated: up to 20%
patients; second- or third-line setting
  Response rate in most advanced cancers: 15%
[3]
  Treatment-related side effects: No treatment-related side effects
